Test results: US20170052170A1, “NOVEL CELL LINES AND METHODS” (priority 2009, published 2017)

Target: T1, sweet taste receptor (T1R2, T1R3 endogenous) (Homo sapiens, UniProt Q7RTX0+Q8TE23)
T1 construct: endogenous in cells; host or cells: HuTu (ATCC HTB-40), H716 (ATCC CCL-251), HEK 293T (ATCC CRL-11268); some with prior UV treatment
T1 sequence (Q8TE23 20-839): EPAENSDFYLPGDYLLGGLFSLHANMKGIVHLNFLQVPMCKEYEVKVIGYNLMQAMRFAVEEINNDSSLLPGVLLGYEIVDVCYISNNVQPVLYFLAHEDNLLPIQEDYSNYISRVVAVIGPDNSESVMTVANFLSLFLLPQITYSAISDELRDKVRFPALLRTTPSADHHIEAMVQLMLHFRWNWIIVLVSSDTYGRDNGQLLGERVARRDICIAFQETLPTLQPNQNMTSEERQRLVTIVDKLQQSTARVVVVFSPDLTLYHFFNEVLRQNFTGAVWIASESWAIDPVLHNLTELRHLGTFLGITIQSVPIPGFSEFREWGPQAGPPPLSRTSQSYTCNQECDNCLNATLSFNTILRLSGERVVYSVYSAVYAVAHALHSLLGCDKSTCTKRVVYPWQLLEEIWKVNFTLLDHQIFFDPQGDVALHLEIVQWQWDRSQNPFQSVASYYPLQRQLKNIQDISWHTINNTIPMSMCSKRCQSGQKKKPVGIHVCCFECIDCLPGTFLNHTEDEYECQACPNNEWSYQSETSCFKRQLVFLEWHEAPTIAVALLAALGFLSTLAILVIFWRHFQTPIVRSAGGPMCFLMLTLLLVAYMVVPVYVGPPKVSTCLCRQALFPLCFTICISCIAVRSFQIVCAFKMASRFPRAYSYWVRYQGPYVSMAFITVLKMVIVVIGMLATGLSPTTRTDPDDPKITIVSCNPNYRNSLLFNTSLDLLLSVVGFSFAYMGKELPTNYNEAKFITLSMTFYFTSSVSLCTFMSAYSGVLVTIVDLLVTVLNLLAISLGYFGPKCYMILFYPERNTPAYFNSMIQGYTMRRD
T1 sequence (Q7RTX0 21-852): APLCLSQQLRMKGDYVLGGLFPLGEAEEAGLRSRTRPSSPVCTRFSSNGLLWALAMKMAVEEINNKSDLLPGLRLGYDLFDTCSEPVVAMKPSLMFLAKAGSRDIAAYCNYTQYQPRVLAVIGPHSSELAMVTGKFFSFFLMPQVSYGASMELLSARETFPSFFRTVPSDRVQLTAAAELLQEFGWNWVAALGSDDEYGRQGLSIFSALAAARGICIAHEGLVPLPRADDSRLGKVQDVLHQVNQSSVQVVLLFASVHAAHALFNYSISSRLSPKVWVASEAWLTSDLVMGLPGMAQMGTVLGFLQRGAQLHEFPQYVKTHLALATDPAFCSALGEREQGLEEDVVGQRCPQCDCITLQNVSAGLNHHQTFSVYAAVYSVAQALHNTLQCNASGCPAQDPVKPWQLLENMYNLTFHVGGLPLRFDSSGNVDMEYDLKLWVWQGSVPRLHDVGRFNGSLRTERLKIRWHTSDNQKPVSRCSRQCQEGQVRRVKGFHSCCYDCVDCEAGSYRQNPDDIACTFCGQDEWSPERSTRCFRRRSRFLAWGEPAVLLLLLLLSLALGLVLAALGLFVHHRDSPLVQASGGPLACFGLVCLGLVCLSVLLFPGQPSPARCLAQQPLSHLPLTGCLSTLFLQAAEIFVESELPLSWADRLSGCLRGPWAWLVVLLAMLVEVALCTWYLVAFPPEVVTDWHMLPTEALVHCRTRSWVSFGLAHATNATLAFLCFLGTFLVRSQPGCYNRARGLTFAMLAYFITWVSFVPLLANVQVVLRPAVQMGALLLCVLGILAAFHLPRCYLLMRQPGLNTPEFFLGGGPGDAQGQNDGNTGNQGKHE
Test: Calcium flux assay, cells endogenously expressing at least one sweet receptor subunit
Type: cell-based
Settings: 15 mM fructose
Experimental: Populations of cells each resulting from the expansion of single isolated cells then were characterized for their ability to respond to a sweet ligand using functional cell-based assays. 15 mM fructose was used in these experiments. Depending on the cell type, different conditions were used as described below.
Forty-eight hours prior to assay, cells were seeded in growth media (L15 media (Sigma #L5520) supplemented with 10% serum (Sigma #SAC1203C), 4 mM L-Glutamine (Sigma G7513), 10 mM HEPES (Sigma H0887), and a […] of penicillin/streptomycin solution (final concentration 100 units penicillin/100 μG streptomycin per mL) (Sigma # P4458) at a high density, from 12 to 20 million cells, in 10 cm dishes. Cells were dissociated from the culture matrix and were seeded at 35,000 cells per well 24 hours prior to assay in 384 well plates. Media was removed after 18 to 24 hours. A calcium-sensitive fluorescent dye (Fluo-4, Invitrogen) diluted in sweet assay buffer (130 mM NaCl, 1.1mMKH2PO4, 1.3 mM CaCl, 20 mM HEPES and 3mMNaHPO4*7H20) was added then to each well. Cells were incubated in this media for 1 hour. Plates then were loaded on a high throughput plate reader (Hamamatsu FDSS). […] Calcium flux or assay response was detected prior to, during and following addition of sweet assay buffer containing fructose to each well for a final concentration of 15 mM fructose. […]
Alternatively, cells were dissociated from the culture matrix and were seeded at cell densities from 2,500 to 20,000 per well for 24 or 48 hours prior to assay in Eagle's Minimal Essential Media (Sigma #D5650) containing 10% FBS (Sigma #2442), 2 mM L-Glutamine (Sigma #G7513) and 1 mM Sodium Pyruvate (Sigma #S8636) or a mixture of equal parts of this media and L-15 media (Sigma, L5520) in a 384 well plate. […] Plates then were loaded on a high throughput plate reader (Hamamatsu FDSS). […] Calcium flux or assay response was detected prior to, during and following addition of sweet assay buffer containing fructose to each well for a final concentration of 15 mM fructose. […]

Measured: response in calcium flux reporter assay

O=C(CO)[C@@H](O)[C@H](O)[C@H](O)CO [fructose]
responding to fructose: 293T cells, FIG. 28C | H716 cells, FIG. 28B | HuTu cells, FIG. 28A
